US7855189B2, “N-phenylphosphoric acid triamides, method for the production thereof and their use as agents for regulating or inhibiting enzymatic urea hydrolysis” (SKW Stickstoffwerke Piesteritz GmbH, priority 2004, dated 2010)
Marks after values point to notes of the source that are not given here.

System: urease
Assay: Testing for urease-inhibiting effect in soil (NH3-N release from urea)
Assay type: biochemical
Conditions: 30 g soil at 40% of max water capacity, 50 mg urea
Description: 30 g soil set to 40% of the maximum water capacity are added with 1 ml urea solution corresponding to 50 mg urea. At the same time the active substance is applied, preferably dissolved in the urea solution. The concentration details for the individual tested active substances given in the following table relate to the quantity of carbamide nitrogen used in the test. The soil, on the surface of which the urea solution (with and without the active substance) is applied is located in an airtight sealed container into which a receiver is inserted at the same time which collects the ammonia released from the urea as ammonium. By rinsing the receiver daily and analysing the NH4—N quantities contained, the NH3—N-release from the urea is determined.
From the summation of the ammonium quantities in the receiver, the percentage inhibition of the urea hydrolysis dependently upon time is calculated and from these values the t50 value is determined mathematically.
The t50 value is understood to be the time in days since the start of the test at which the urea hydrolysis inhibition is still 50%.

| SMILES | urease inhibition t50 value (time in days at which the urea hydrolysis inhibition is still 50%) (conc. 0.5 % HS-N-related (in relation to urea nitrogen used)) | urease inhibition t50 value (time in days at which the urea hydrolysis inhibition is still 50%) (conc. 0.05 % HS-N-related (in relation to urea nitrogen used)) |
| --- | --- | --- |
| Cc1cccc(NP(N)(N)=O)c1 [Compound 2, N-(3-methylphenyl)phosphoric acid triamide] | 11.2 days | – |
| NP(N)(=O)Nc1ccccc1[N+](=O)[O-] [Compound 1, N-(2-nitrophenyl)phosphoric acid triamide] | – | >25^b) d |
